From patent US8063044B2, “Pyrazole derivatives” (Pfizer Inc., priority 2001, dated 2011)

Experiments:
[1] = target: T1, purified recombinant HIV-1 reverse transcriptase (Human immunodeficiency virus type 1 group M subtype B, UniProt P04585); assay: Inhibition of HIV-1 reverse transcriptase enzyme ([3H]-SPA or flashplate assay); type: biochemical; settings: recombinant RT expressed in Escherichia Coli; Poly(rA)-oligo(dT) [3H]-SPA or [3H]-flashplate assay; 5% final DMSO; read-out: IC50 (concentration at which the compound inhibited the reverse transcriptase by 50%)
T1 construct: purified recombinant HIV-1 reverse transcriptase (RT, EC, 2.7.7.49); made in house; host or cells: Escherichia coli
Source text: A. Inhibition of HIV-1 Reverse Transcriptase Enzyme
The reverse transcriptase activity of the compounds of the invention may be assayed as following. Using the purified recombinant HIV-1 reverse transcriptase (RT, EC, 2.7.7.49) obtained by expression in Escherichia Coli, a 96-well plate assay system was established for assaying a large number of samples using either the Poly(rA)-oligo(dT) Reverse Transcriptase [3H]-SPA enzyme assay system (Amersham NK9020) or the [3H]-flashplate enzyme assay system (NEN-SMP 103) and following the manufacturer's recommendations. The compounds were dissolved in 100% DMSO and diluted with the appropriate buffer to a 5% final DMSO concentration. The inhibitory activity was expressed in percent inhibition relative to the DMSO control.

Row | Compound | melting point [°C] | IC50 [1] [µM]
1 | CCc1nn(CC#N)c(CC)c1Oc1cc(Cl)cc(Cl)c1 | 70 to 72 | –
2 | CCc1nn(Cc2cc(=O)[nH]c(N)n2)c(CC)c1Oc1cc(Cl)cc(Cl)c1 [Example 7, 2-Amino-6-{[4-(3,5-dichlorophenoxy)-3,5-diethyl-1H-pyrazol-1-yl]methyl}-4(3H)-pyrimidinone] | – | 39
3 | CCc1nn(CCO)c(CC)c1Oc1c(C)cc(C#N)cc1C [Example 20] | – | 3.2
4 | CCc1nn(C2CNC2)c(CC)c1Oc1cc(Cl)cc(Cl)c1 [Example 51, 1-(3-Azetidinyl)-4-(3,5-dichlorophenoxy)-3,5-diethyl-1H-pyrazole] | – | 0.248
